Laboratory results published in US20260049072A1, “HETEROCYCLIC COMPOUND FOR INDUCING DEGRADATION OF MUTANT KRAS PROTEIN” (Astellas Pharma Inc., priority 2022, published 2026).

Key:
RAS G12V = biological target: T1, RAS G12V (Homo sapiens, UniProt P01116, G12V); assay: RAS G12V degradation activity, Cell ELISA, PA-TU-8902; type: cell-based; conditions: PA-TU-8902 cells, 24 hours; for DC50: 100% = Example compound 17 at 1 μM, read-out: DC50 (RAS G12V 50% degradation value)
T1 construct: host or cells: PA-TU-8902 human pancreatic cancer cells
Protocol: Test Example 1-1: Evaluation of RAS G12V Degradation Activity on Human KRAS G12V Mutant-Positive Pancreatic Cancer Line PA-TU-8902
The RAS G12V degradation activities of subject compounds were evaluated by measuring the expression levels of RAS G12V by a Cell ELISA method.
PA-TU-8902 cells (DSMZ, ACC 179) were seeded at 36 μL per well on a 384-well plate (from Greiner bio-one) to give 1.5×10^4 cells per well. As for the cell culture conditions, DMEM medium (from Sigma-Aldrich) containing 10% fetal bovine serum (from Cytiva) was used in the presence of 5% CO2 at 37° C.
The next day, the subject compounds (10 points having final concentrations in the range of 3 μM to 0.1 nM), Example compound 17 of a final concentration of 1 μM as a positive control and dimethyl sulfoxide (DMSO), which was the solvent for the subject compounds, as a negative control were diluted 100-fold with a fresh medium and were each added at 4 μL per well, followed by culturing for 24 hours.
The next day, the culture supernatant was removed, and a 4% paraformaldehyde phosphate buffer solution (from FUJIFILM Wako) was added at 20 μL per well. The plate was allowed to stand for 30 minutes at room temperature to thus immobilize the cells. Then, the supernatant was removed, and 0.1% Triton X-100 (from Amersham Biosciences)-containing Phosphate buffered saline (PBS) was added at 20 μL per well. After allowing the plate to stand at room temperature for 10 minutes, the supernatant was removed, and the wells were washed twice in total by adding PBS at 25 μL per well and removing the supernatant. The washing operations below were performed in the same manner. Next, the supernatant was removed, and 0.5% sodium dodecyl sulfate (SDS; from ThermoFisher Scientific)-containing PBS was added at 20 μL per well. After allowing the plate to stand at room temperature for 10 minutes, the plate was centrifuged to remove the supernatant. After washing with PBS, the supernatant was removed by centrifugation, and a blocking solution (PVDF Blocking Reagent for Can Get Signal; from TOYOBO) was added at 20 μL per well. After allowing the plate to stand for 30 minutes at room temperature, the supernatant was removed by centrifugation, and a solution obtained by diluting an anti-Ras (G12V Mutant Specific) antibody (Ras (G12V Mutant Specific) (D2H12) Rabbit mAb; from Cell Signaling Technology; 500-fold dilution) and an anti-3-actin antibody (Anti-beta Actin antibody; from Abcam; 5,000-fold dilution) with Can Get Signal Solution 2 (from TOYOBO) was added at 15 μL per well as primary antibodies. The plate was allowed to stand overnight at 4° C.
The next day, the supernatant was removed by centrifugation, and the plate was washed with PBS. The supernatant was removed by centrifugation, and a solution obtained by diluting an anti-rabbit IgG antibody (IRDye 800CW Goat anti-Rabbit IgG; from LI-COR Biosciences) and an anti-mouse IgG antibody (IRDye 680RD Donkey anti-Mouse IgG; from LI-COR Biosciences) 1,000-fold with Can Get Signal Solution 2 was added at 15 μL per well as secondary antibodies. After allowing the plate to stand at room temperature for an hour, the supernatant was removed by centrifugation, and the plate was washed with PBS. After removing the supernatant, the plate was dried as it was with air at room temperature for two hours or more, and the 700-nm and 800-nm fluorescent signals were measured with Aerius (from LI-COR Biosciences).
With the RAS G12V signaling value at the time of addition of DMSO corrected with the signaling value of 3-actin taken as 0% and with the RAS G12V signaling value at the time of addition of Example compound 17 of a final concentration of 1 μM taken as 100%, the RAS G12V degradation rates were calculated. The 50% degradation values (DC50) were calculated by Sigmoid-Emax model nonlinear regression analysis.

AsPC-1 cells = assay: Non-anchorage-dependent cell growth inhibition (spheroid 3D culture), AsPC-1; type: cell-based; conditions: Homo sapiens, ASPC1, 144 h; KRAS G12D mutant-positive, 3D spheroid, six days, CellTiter-Glo 2.0; read-out: AsPC-1 IC50
Protocol: (§1) Test Example 3: Evaluation of Non-Anchorage-Dependent Cell Growth Inhibitory Activity on Human KRAS G12V Mutant-Positive Pancreatic Cancer Line PA-TU-8902, Human KRAS G12D Mutant-Positive Pancreatic Cancer Line AsPC-1 or Human KRAS G12C Mutant-Positive Pancreatic Cancer Line MIA PaCa-2
(§2) The non-anchorage-dependent cell growth inhibitory activities of subject compounds were evaluated by spheroid 3D cell culture.
(§3) PA-TU-8902 cells, AsPC-1 cells or MIA PaCa-2 cells (RIKEN BRC, RCB2094) were seeded at 36 µL/well on a low-cell-adhesive round bottom 384-well plate (Prime Surface: from Sumitomo Bakelite) to give 5×10^2 cells per well. The PA-TU-8902 cells were under the same conditions as in Test Example 1-1, and the AsPC-1 cells were under the same conditions as in Test Example 1-2. For the MIA PaCa-2 cells, RPMI-1640 medium containing 10% fetal bovine serum was used in the presence of 5% CO2 at 37° C.
(§4) The next day, the subject compounds (6-9 points having final concentrations in the range of 3 μM to 0.3 nM) and DMSO, which was the solvent for the subject compounds, as a negative control were diluted 100-fold with a fresh medium and were each added at 4 μL per well. After culturing in the presence of 5% CO2 at 37° C. for six days, CellTiter-Glo 2.0 (from Promega) was added at 20 μL per well. After stirring with a plate mixer (from FINEPCR) at normal temperature for an hour, the luminescent signals were measured with ARVO X3 (from PerkinElmer).
(§5) With the signaling value in treatment with DMSO taken as 0% inhibition and with the signaling value in the medium alone without cells taken as 100% inhibition, the 50% inhibition values (IC50) were calculated by Sigmoid-Emax model nonlinear regression analysis.

MIA PaCa-2 cells = assay: Non-anchorage-dependent cell growth inhibition (spheroid 3D culture), MIA PaCa-2; type: cell-based; conditions: Homo sapiens, MIA PaCa-2, 144 h; KRAS G12C mutant-positive, 3D spheroid, six days, CellTiter-Glo 2.0; read-out: MIA PaCa-2 IC50
Protocol: as §1, §2, §3, §4, §5

PA-TU-8902 cells = assay: Non-anchorage-dependent cell growth inhibition (spheroid 3D culture), PA-TU-8902; type: cell-based, human; conditions: Homo sapiens, PaTu 8902, 144 h; KRAS G12V mutant-positive, 3D spheroid, six days, CellTiter-Glo 2.0; read-out: PA-TU-8902 IC50
Protocol: as §1, §2, §3, §4, §5

T1 sequence (P01116 1-188 isoform P01116-2 G12V): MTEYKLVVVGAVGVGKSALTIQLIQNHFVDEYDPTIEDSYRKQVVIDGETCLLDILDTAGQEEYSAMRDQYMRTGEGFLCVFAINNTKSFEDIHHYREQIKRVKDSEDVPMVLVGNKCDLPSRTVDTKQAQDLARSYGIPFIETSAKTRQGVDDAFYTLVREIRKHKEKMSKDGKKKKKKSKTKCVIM

Compound	DC50 (RAS G12V) [nM]	IC50 (AsPC-1 cells) [nM]	IC50 (MIA PaCa-2 cells) [nM]	IC50 (PA-TU-8902 cells) [nM]	Dmax (RAS G12V; PaTu 8902, RAS G12V, read-out: Dmax (degradation rate at the concentration with highest degradation activity)) [%]
CO[C@@H](C)COc1nc(NC2CN(C(=O)O[C@H]3C[C@@H](N(C)C)C3)C2)c2cc(C3CC3)c(-c3c(C)c(F)cc4[nH]ncc34)c(OCc3ccc(-c4cn([C@H](C(=O)N5C[C@H](O)C[C@H]5C(=O)N[C@@H](CO)c5ccc(-c6ocnc6C)cc5)C(C)C)nn4)cc3)c2n1 (atropisomer, axis not shown; (M)) [Example 1, (1s,3R)-3-(dimethylamino)cyclobutyl 3-({(7M)-6-cyclopropyl-7-(6-fluoro-5-methyl-1H-indazol-4-yl)-8-{[4-(1-{(2S)-1-[(2S,4R)-4-hydroxy-2-({(1R)-2-hydroxy-1-[4-(4-methyl-1,3-oxazol-5-yl)phenyl]ethyl}carbamoyl)pyrrolidin-1-yl]-3-methyl-1-oxobutan-2-yl}-1H-1,2,3-triazol-4-yl)phenyl]methoxy}-2-[(2S)-2-methoxypropoxy]quinazolin-4-yl}amino)azetidine-1-carboxylate]	31	28	11	57	–
CO[C@@H](C)COc1nc(N[C@H]2C[C@H](OCCN(C)C)C2)c2cc(C3CC3)c(-c3c(C)c(F)cc4[nH]ncc34)c(OCc3ccc(-c4cn([C@H](C(=O)N5C[C@H](O)C[C@H]5C(=O)N[C@@H](CO)c5ccc(-c6scnc6C)cc5)C(C)C)nn4)cc3)c2n1 (atropisomer, axis not shown) [Example 23]	112	9	17	182	62
CO[C@@H](C)COc1nc(N2CCOCC2)c2cc(C3CC3)c(-c3c(C)c(F)cc4[nH]ncc34)c(OCc3ccc(-c4cn([C@H](C(=O)N5C[C@H](O)C[C@H]5C(=O)N[C@@H](CO)c5ccc(-c6scnc6C)cc5)C(C)C)nn4)cc3)c2n1 (atropisomer, axis not shown) [Example 21]	35	43	11	60	–
Cc1ncsc1-c1ccc([C@H](CO)NC(=O)[C@@H]2C[C@@H](O)CN2C(=O)[C@H](C(C)C)n2cc(-c3ccc(COc4c(-c5c(C)c(F)cc6[nH]ncc56)c(C5CC5)cc5c(NCc6cccnc6)nc(OC6CCOCC6)nc45)cc3)nn2)cc1 [Example 29]	8	25	5	63	–
CO[C@@H](C)COc1cc(OC2CN(C(=O)N3CC(CN(C)C)C3)C2)c2cc(C3CC3)c(-c3c(C)c(F)cc4[nH]ncc34)c(OCc3ccc(-c4cn([C@H](C(=O)N5C[C@H](O)C[C@H]5C(=O)N[C@@H](CO)c5ccc(-c6scnc6C)cc5)C(C)C)nn4)cc3)c2n1 (atropisomer, axis not shown; (M)) [Example 14, (4R)-1-[(2S)-2-(4-{4-[({(7M)-6-cyclopropyl-4-[(1-{3-[(dimethylamino)methyl]azetidine-1-carbonyl}azetidin-3-yl)oxy]-7-(6-fluoro-5-methyl-1H-indazol-4-yl)-2-[(2S)-2-methoxypropoxy]quinolin-8-yl}oxy)methyl]phenyl}-1H-1,2,3-triazol-1-yl)-3-methylbutanoyl]-4-hydroxy-N-{(1R)-2-hydroxy-1-[4-(4-methyl-1,3-thiazol-5-yl)phenyl]ethyl}-L-prolinamide]	10	19	10	47	–
CO[C@@H](C)COc1cc(OC2CN(C(=O)O[C@H]3C[C@@H](N(C)C)C3)C2)c2cc(C3CC3)c(-c3c(C)c(F)cc4[nH]ncc34)c(OCc3ccc(-c4cn([C@H](C(=O)N5C[C@H](O)C[C@H]5C(=O)N[C@@H](CO)c5ccc(-n6cncn6)cc5)C(C)C)nn4)cc3)c2n1 (atropisomer, axis not shown; (M)) [Example 13, (1s,3R)-3-(dimethylamino)cyclobutyl 3-({(7M)-6-cyclopropyl-7-(6-fluoro-5-methyl-1H-indazol-4-yl)-8-{[4-(1-{(2S)-1-[(2S,4R)-4-hydroxy-2-({(1R)-2-hydroxy-1-[4-(1H-1,2,4-triazol-1-yl)phenyl]ethyl}carbamoyl)pyrrolidin-1-yl]-3-methyl-1-oxobutan-2-yl}-1H-1,2,3-triazol-4-yl)phenyl]methoxy}-2-[(2S)-2-methoxypropoxy]quinolin-4-yl}oxy)azetidine-1-carboxylate]	11	18	13	36	–
CO[C@@H](C)COc1nc(N(C)[C@H]2CCN(C(=O)NCCN(C)C)C2)c2cc(C3CC3)c(-c3c(C)c(F)cc4[nH]ncc34)c(OCc3ccc(-c4cn([C@H](C(=O)N5C[C@H](O)C[C@H]5C(=O)N[C@@H](CO)c5ccc(-c6scnc6C)cc5)C(C)C)nn4)cc3)c2n1 (atropisomer, axis not shown) [Example 19]	26	16	27	58	–
CO[C@@H](C)COc1cc(OC2CN(C(=O)N3CC(CN(C)C)C3)C2)c2cc(C3CC3)c(-c3c(C)c(F)cc4[nH]ncc34)c(OCc3ccc(-c4cn([C@H](C(=O)N5C[C@H](O)C[C@H]5C(=O)N[C@@H](CO)c5ccc(-n6cncn6)cc5)C(C)C)nn4)cc3)c2n1 (atropisomer, axis not shown; (M)) [Example 5, (4R)-1-[(2S)-2-(4-{4-[({(7M)-6-cyclopropyl-4-[(1-{3-[(dimethylamino)methyl]azetidine-1-carbonyl}azetidin-3-yl)oxy]-7-(6-fluoro-5-methyl-1H-indazol-4-yl)-2-[(2S)-2-methoxypropoxy]quinolin-8-yl}oxy)methyl]phenyl}-1H-1,2,3-triazol-1-yl)-3-methylbutanoyl]-4-hydroxy-N-{(1R)-2-hydroxy-1-[4-(1H-1,2,4-triazol-1-yl)phenyl]ethyl}-L-prolinamide]	26	8	5	29	–
